pIC50: −log10 of the molar value. Numbered stars: 1 amine (or outer) side, 2 acyl side, 3 side chain; on linkers, the order of the positions; unused ones are H or OH. Bridge positions count the residues as written; N and C are the ends. Square brackets hold non-standard residues; d marks the D form. Peptide text beside a SMILES is read from it. Phe(4-(4-Ac-piperazinyl)) = CC(=O)N1CCN(c2ccc(C[C@H](N)C(=O)O)cc2)CC1; Trp(βS-Me,7-OMe) = COc1cccc2c([C@H](C)[C@H](N)C(=O)O)c[nH]c12; Trp(βS-Me) = C[C@@H](c1c[nH]c2ccccc12)[C@H](N)C(=O)O; Trp(7-Cl) = N[C@@H](Cc1c[nH]c2c(Cl)cccc12)C(=O)O; Phe(3-COOH) = N[C@@H](Cc1cccc(C(=O)O)c1)C(=O)O; Phe(4-CONH2) = NC(=O)c1ccc(C[C@H](N)C(=O)O)cc1; Phe(4-COOH) = N[C@@H](Cc1ccc(C(=O)O)cc1)C(=O)O; Ala(4-Pyridazinyl) = N[C@@H](Cc1ccnnc1)C(=O)O; Lys(Me3) = C[N+](C)(C)CCCC[C@H](N)C(=O)O; Pip(5R-OH) = O=C(O)[C@@H]1CC[C@@H](O)CN1; X1 = O=C([C@@H]1CC[C@H](N[*:1])C1)[*:2]; Pip(4-aza) = O=C(O)[C@@H]1CNCCN1; 4Pal = N[C@@H](Cc1ccncc1)C(=O)O; NMeE = CN[C@@H](CCC(=O)O)C(=O)O; dHyp = O=C(O)[C@H]1C[C@H](O)CN1; Pip = O=C(O)[C@@H]1CCCCN1; αMeS = C[C@](N)(CO)C(=O)O; NMeA = CN[C@@H](C)C(=O)O; Nle = CCCC[C@H](N)C(=O)O; Sar = CNCC(=O)O

The assay addresses T1, TNFα-induced NF-κB signal transduction pathway (TNFR1 signaling) in THP-1 cells (Homo sapiens, UniProt P19438).
T1 sequence (P19438 30-455): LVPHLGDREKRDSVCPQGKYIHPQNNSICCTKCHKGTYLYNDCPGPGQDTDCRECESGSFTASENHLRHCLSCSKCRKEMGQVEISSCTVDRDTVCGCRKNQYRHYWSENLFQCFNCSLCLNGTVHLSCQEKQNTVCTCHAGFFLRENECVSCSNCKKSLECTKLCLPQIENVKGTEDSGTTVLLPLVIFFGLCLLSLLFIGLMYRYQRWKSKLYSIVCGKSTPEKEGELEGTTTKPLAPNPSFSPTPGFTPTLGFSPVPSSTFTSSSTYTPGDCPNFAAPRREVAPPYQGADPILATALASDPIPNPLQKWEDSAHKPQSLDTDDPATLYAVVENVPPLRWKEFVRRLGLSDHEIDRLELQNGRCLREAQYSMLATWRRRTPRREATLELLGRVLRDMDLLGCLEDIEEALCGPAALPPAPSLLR
Nature of the assay: THP-1 Lucia NF-κB reporter cell assay, inhibition of TNFα-induced NF-κB signaling. The class given is cell-based. The conditions noted are these: THP-1 NF-κB Lucia reporter cells, 10 ng/mL TNFα, 16-18 h, secreted luciferase; read-out: THP-1 IC50. The procedure:
C. Procedure for THP-1 Lucia NF-κB cells
The inhibition of TNFα-induced NF-κB signal transduction pathways was evaluated in THP-1 cells. THP-1 cells harboring NF-κB-inducible Lucia™ reporter gene (InvivoGen, cat. #thp1-nfkb) designed for monitoring NF-κB signal transduction pathway was employed to assess the inhibitory effect macrocyclic peptides on TNFR1 signaling. The cells were cultured in media containing RPMI 1640, 2 mM L-glutamine, 25 mM HEPES, 10% heat-inactivated fetal bovine serum with appropriate selection antibiotics. Assays were performed in media that was devoid of selection antibiotics. For profiling, 125 nL of peptides in DMSO (10 mM) were dispensed into Falcon® 384-well Optilux white/clear flat bottom TC-treated microtest microplate (Corning, cat. #353963) using Echo® 555. […] A suspension of 1 million cells/mL was dispensed at 20 μL/well in a 384-well plate to a density of 20,000 cells/well and pre-incubated with peptides at 37° C. for 1 h. Subsequently, 5 μL of TNF containing media (recombinant human TNFα; R&D Systems USA, cat. #210-TA-005/CF) or TNF-free media (for controls) was added to the wells. The final concentration of TNFα in the assay in 10 ng/mL. After o.n. incubation at 37° C. (16-18 h), 5 μL of supernatant was aspirated and transferred to a 384-well microplate (PerkinElmer, cat. #6007680) for measurement of secreted luciferase activity with 25 μL of QUANTI-Luc™ luminescence assay reagent (InvivoGen, cat. #rep-qlc1) in each well. The luminescence was measured in EnVision® Multimode Plate Reader (PerkinElmer). Dose response curves were analyzed using a 4-parameter logistic model to calculate IC50 values, reported in Table 2, using TIBCO® Spotfire® software employing appropriate Minimum and Maximum controls.
Turning to `COc1cccc2c([C@H](C)[C@@H]3NC(=O)CN(C)C(=O)[C@H](Cc4ccc(O)cc4)NC(=O)[C@H](Cc4ccc(C(=O)O)cc4)NC(=O)[C@](C)(CO)NC(=O)[C@H](Cc4c[nH]c5c(Cl)cccc45)NC(=O)[C@H](Cc4ccncc4)NC(=O)[C@H](CC(N)=O)NC(=O)[C@H](CCC(=O)O)N(C)C(=O)[C@H](Cc4c[nH]c5ccccc45)NC(=O)[C@@H]4CCCCN4C(=O)[C@H](Cc4ccncc4)NC(=O)[C@H](CCCC[N+](C)(C)C)NC(=O)[C@@H]4CC[C@@H](C4)NC3=O)c[nH]c12` [SEQ ID NO. 47] (cyclo([4Pal][Pip]W[NMeE]N[4Pal][Trp(7-Cl)][αMeS][Phe(4-COOH)]Y[Sar][Trp(βS-Me,7-OMe)][X1][Lys(Me3)])), the pIC50 is 8.72.

As for `CCCC[C@@H]1NC(=O)[C@@H]2CC[C@@H](C2)NC(=O)[C@H]([C@@H](C)c2c[nH]c3c(OC)cccc23)NC(=O)CN(C)C(=O)[C@H](Cc2ccc(N3CCN(C(C)=O)CC3)cc2)NC(=O)[C@H](Cc2ccc(C(=O)O)cc2)NC(=O)[C@](C)(CO)NC(=O)[C@H](Cc2c[nH]c3c(Cl)cccc23)NC(=O)[C@H](Cc2ccncc2)NC(=O)[C@H](CC(N)=O)NC(=O)[C@H](CCC(=O)O)N(C)C(=O)[C@H](Cc2c[nH]c3ccccc23)NC(=O)[C@@H]2CNCCN2C(=O)[C@H](Cc2ccncc2)NC1=O` [SEQ ID NO. 63] (cyclo([4Pal][Trp(7-Cl)][αMeS][Phe(4-COOH)][Phe(4-(4-Ac-piperazinyl))][Sar][Trp(βS-Me,7-OMe)][X1][Nle][4Pal][Pip(4-aza)]W[NMeE]N)), the pIC50 is 8.92.

Consider `C[C@@H](c1c[nH]c2ccccc12)[C@@H]1NC(=O)[C@H](CO)NC(=O)[C@H](Cc2ccc(O)cc2)NC(=O)[C@H](CCCCN)NC(=O)CSC[C@@H](C(N)=O)NC(=O)[C@H](Cc2c[nH]c3ccccc23)NC(=O)CN(C)C(=O)[C@H](Cc2ccc(O)cc2)NC(=O)[C@H](Cc2ccc(C(=O)O)cc2)NC(=O)[C@](C)(CO)NC(=O)[C@H](Cc2c[nH]c3ccccc23)NC(=O)[C@H](Cc2ccncc2)NC(=O)[C@H](CC(N)=O)NC(=O)[C@H](C)N(C)C1=O` [SEQ ID NO. 36] ({CH2CO}-KYS[Trp(βS-Me)][NMeA]N[4Pal]W[αMeS][Phe(4-COOH)]Y[Sar]WC-NH2; thioether N-14), for which the negative-log IC50 (pIC50) is 8.66.

With `CCCC[C@@H]1NC(=O)[C@@H]2CC[C@@H](C2)NC(=O)[C@H]([C@@H](C)c2c[nH]c3c(OC)cccc23)NC(=O)CN(C)C(=O)[C@H](Cc2ccc(C(=O)O)cc2)NC(=O)[C@H](Cc2ccc(C(N)=O)cc2)NC(=O)[C@](C)(CO)NC(=O)[C@H](Cc2c[nH]c3c(Cl)cccc23)NC(=O)[C@H](Cc2ccc(C(=O)O)cc2)NC(=O)[C@H](CC(N)=O)NC(=O)[C@H]2C[C@H](O)CN2C(=O)[C@H](Cc2c[nH]c3ccccc23)NC(=O)[C@@H]2CC[C@@H](O)CN2C(=O)[C@H](Cc2ccnnc2)NC1=O` [SEQ ID NO. 105] (cyclo(N[Phe(4-COOH)][Trp(7-Cl)][αMeS][Phe(4-CONH2)][Phe(4-COOH)][Sar][Trp(βS-Me,7-OMe)][X1][Nle][Ala(4-Pyridazinyl)][Pip(5R-OH)]W[dHyp])), the pIC50 was 9.15.

Turning to `CCCC[C@@H]1NC(=O)[C@@H]2CC[C@@H](C2)NC(=O)[C@H]([C@@H](C)c2c[nH]c3c(OC)cccc23)NC(=O)CN(C)C(=O)[C@H](Cc2ccc(O)cc2)NC(=O)[C@H](Cc2cccc(C(=O)O)c2)NC(=O)[C@](C)(CO)NC(=O)[C@H](Cc2c[nH]c3c(Cl)cccc23)NC(=O)[C@H](Cc2ccncc2)NC(=O)[C@H](CC(N)=O)NC(=O)[C@H](CCC(=O)O)N(C)C(=O)[C@H](Cc2c[nH]c3ccccc23)NC(=O)[C@@H]2CNCCN2C(=O)[C@H](Cc2ccncc2)NC1=O` [SEQ ID NO. 28] (cyclo([4Pal][Trp(7-Cl)][αMeS][Phe(3-COOH)]Y[Sar][Trp(βS-Me,7-OMe)][X1][Nle][4Pal][Pip(4-aza)]W[NMeE]N)), the pIC50 was 8.80.

For the origin of these results see US20240287138A1, “CYCLIC PEPTIDES FOR INHIBITING TNF RECEPTOR 1 ACTIVITY” (Merck Sharp & Dohme LLC, priority 2023, published 2024).
